Laboratory results published in patent publication US12303505B2, “Tumor-treating pharmaceutical composition” (Eisai R&D Management Co., Ltd., priority 2017, dated 2025).
Where a name gives a salt, the structure may show the parent alone.

Experiments:
Assay type in all cases: in vivo
[1] = tested on: Human hepatocellular carcinoma line SNU398 cells; assay: Antitumor effect in human hepatocellular carcinoma line SNU398 transplantation model, nude mice
Procedure: Human hepatocellular carcinoma line SNU398 cells (ATCC) were cultured by using RPMI1640 medium (Wako Pure Chemical Industries, Ltd.) containing 10% FBS in a 5% CO2 incubator under conditions of 37° C. When the cells became an approximately 80% confluent state, the cells were recovered by using trypsin-EDTA. A suspension was prepared by adding Hank's balanced salt solution containing 50% Matrigel to the cells so as to be 5.0×10^7 cells/mL. 0.1 mL of the obtained cell suspension was subcutaneously transplanted to the sides of the bodies of eight nude mice (CAnN.Cg-Foxn1^nu/CrlCrlj, Charles River Laboratories Japan, Inc.) each of a control group, an E7386 50 mg/kg alone administration group, a lenvatinib mesylate 10 mg/kg alone administration group, and a combined administration group of 12.5, 25 or 50 mg/kg E7386 and 10 mg/kg lenvatinib mesylate. From 9 days after the transplantation, E7386 (12.5, 25, or 50 mg/kg, b.d.s., 14 days, oral administration) and lenvatinib mesylate (10 mg/kg, q.d., 14 days, oral administration) were administered alone or in combination to the alone administration group or the combined administration group. For the administration, E7386 was dissolved in 0.1 mol/L hydrochloric acid, and lenvatinib mesylate was dissolved in 3 mmol/L hydrochloric acid. Any drug was not administered to the control group.
When the start day of administration was defined as day 1, the major axis and minor axis of tumor developed in each mouse were then measured at day 6, day 9, day 12, and day 15 by using Digimatic Caliper (Mitutoyo Corp.).
(§1) The tumor volume and the relative tumor volume (RTV) were calculated according to the following expressions. Tumor volume (mm^3)=Tumor major axis (mm)×Tumor minor axis^2 (mm^2)/2 Relative tumor volume (RTV)=Tumor volume at the measurement day/Tumor volume at the start day of administration

[2] = tested on: Human hepatocellular carcinoma line HepG2 cells; assay: Antitumor effect in human hepatocellular carcinoma line HepG2 subcutaneous transplantation model, nude mice
Procedure: Human hepatocellular carcinoma line HepG2 cells (JCRB Cell Bank) were cultured by using DMEM-Low glucose medium (Wako Pure Chemical Industries, Ltd.) containing 10% FBS in a 5% CO2 incubator under conditions of 37° C. When the cells became an approximately 80% confluent state, the cells were recovered by using trypsin-EDTA. A suspension was prepared by adding phosphate-buffered saline containing 50% Matrigel to the cells so as to be 10.0×10^7 cells/mL. 0.1 mL of the obtained cell suspension was subcutaneously transplanted to the sides of the bodies of five nude mice (CAnN.Cg-Foxn1^nu/CrlCrlj, Charles River Laboratories Japan, Inc.) each of a control group, an E7386 50 mg/kg alone administration group, a lenvatinib mesylate 10 mg/kg alone administration group, and a combined administration group of 50 mg/kg E7386 and 10 mg/kg lenvatinib mesylate. From 12 days after the transplantation, E7386 (50 mg/kg, b.d.s., 14 days, oral administration) and lenvatinib mesylate (10 mg/kg, q.d., 14 days, oral administration) were administered alone or in combination to the alone administration group or the combined administration group. For the administration, E7386 was dissolved in 0.1 mol/L hydrochloric acid, and lenvatinib mesylate was dissolved in 3 mmol/L hydrochloric acid. Any drug was not administered to the control group.
When the start day of administration was defined as day 1, the major axis and minor axis of tumor developed in each mouse were then measured at day 4, day 7, day 9, day 13, and day 15 by using Digimatic Caliper (Mitutoyo Corp.).
as §1

[3] = tested on: Human renal cell carcinoma line A-498 cells; assay: Antitumor effect in human renal cell carcinoma line A-498 subcutaneous transplantation model, nude mice
Procedure: Human renal cell carcinoma line A-498 cells (ATCC) were cultured by using RPMI1640 medium (Wako Pure Chemical Industries, Ltd.) containing 10% FBS in a 5% COz incubator under conditions of 37° C. When the cells became an approximately 100% confluent state, the cells were recovered by using trypsin-EDTA. A suspension was prepared by adding RPMI1640 medium containing 50% Matrigel to the cells so as to be 5.0×10^7 cells/mL. 0.1 mL of the obtained cell suspension was subcutaneously transplanted to the sides of the bodies of six nude mice (CAnN.Cg-Foxn1^nu/CrlCrlj, Charles River Laboratories Japan, Inc.) each of a control group, an E7386 50 mg/kg alone administration group, a lenvatinib mesylate 10 mg/kg alone administration group, and a combined administration group of 50 mg/kg E7386 and 10 mg/kg lenvatinib mesylate. From 27 days alter the transplantation, E7386 (50 mg/kg, q.d., 14 days, oral administration) and lenvatinib mesylate (10 mg/kg, q.d, 14 days, oral administration) were administered alone or in combination to the alone administration group or the combined administration group. For the administration, E7386 was dissolved in 0.1 mol/L hydrochloric acid, and lenvatinib mesylate was dissolved in 3 mmol/L hydrochloric acid. Any drug was not administered to the control group.
When the start day of administration was defined as day 1, the major axis and minor axis of tumor developed in each mouse were then measured at day 5, day 8, day 12, and day 15 by using Digimatic Caliper (Mitutoyo Corp.).
as §1

[4] = Day 9, lenvatinib mesylate 10 mg/kg q.d. oral alone
[5] = Day 12, lenvatinib mesylate 10 mg/kg q.d. oral alone
[6] = Day 15, lenvatinib mesylate 10 mg/kg q.d. oral alone
[7] = Day 9, E7386 50 mg/kg b.d.s. oral alone
[8] = Day 15, E7386 50 mg/kg b.d.s. oral alone

Q: COc1cc2nccc(Oc3ccc(NC(=O)NC4CC4)c(Cl)c3)c2cc1C(N)=O [Lenvatinib mesylate, 4-(3-chloro-4-(cyclopropylaminocarbonyl)aminophenoxy)-7-methoxy-6-quinolinecarboxamide, reference compound] was tested. Which “Relative tumor volume (RTV), mean±SD” value ([1]; Day 6, lenvatinib mesylate 10 mg/kg q.d. oral alone) did it give?
A: The value was 3.98 ± 1.00.

Q: And the “Relative tumor volume (RTV), mean±SD” value [1, 4]?
A: The value was 6.48 ± 1.74.

Q: What about the “Relative tumor volume (RTV), mean±SD” value [1, 5] of the same molecule?
A: Its value is 8.33 ± 2.08.

Q: And the “Relative tumor volume (RTV), mean±SD” value [1, 6]?
A: The value was 9.71 ± 2.30.

Q: What about the “Relative tumor volume (RTV), mean±SD” value ([2]; Day 4, lenvatinib mesylate 10 mg/kg q.d. oral alone) of the same molecule?
A: The value was 1.10 ± 0.08.

Q: What about the “Relative tumor volume (RTV), mean±SD” value ([2]; Day 7, lenvatinib mesylate 10 mg/kg q.d. oral alone) of the same molecule?
A: The value was 1.60 ± 0.94.

Q: And the “Relative tumor volume (RTV), mean±SD” value [2, 4]?
A: The value was 2.07 ± 0.88.

Q: What about the “Relative tumor volume (RTV), mean±SD” value ([2]; Day 13, lenvatinib mesylate 10 mg/kg q.d. oral alone) of the same molecule?
A: The value was 2.70 ± 1.47.

Q: What about the “Relative tumor volume (RTV), mean±SD” value [2, 6] of the same molecule?
A: Its value is 3.43 ± 1.46.

Q: What about the “Relative tumor volume (RTV), mean±SD” value ([3]; Day 5, lenvatinib mesylate 10 mg/kg q.d. oral alone) of the same molecule?
A: Its value is 1.08 ± 0.18.

Q: What about the “Relative tumor volume (RTV), mean±SD” value ([3]; Day 8, lenvatinib mesylate 10 mg/kg q.d. oral alone) of the same molecule?
A: The value was 1.35 ± 0.25.

Q: What about the “Relative tumor volume (RTV), mean±SD” value [3, 5] of the same molecule?
A: The value was 1.21 ± 0.18.

Q: And the “Relative tumor volume (RTV), mean±SD” value [3, 6]?
A: Its value is 1.20 ± 0.21.

Q: How did the “Relative tumor volume (RTV), mean±SD” value ([1]; Day 6, E7386 50 mg/kg b.d.s. oral alone) turn out when C=CCN1CC(=O)N2[C@@H](Cc3ccc(O)cc3F)C(=O)N(Cc3cccc(N4CC(N5CCN(CC)CC5)C4)n3)C[C@@H]2N1C(=O)NCc1ccccc1 [E7386, (6S,9aS)—N-Benzyl-8-({6-[3-(4-ethylpiperazin-1-yl)azetidin-1-yl]pyridin-2-yl}methyl)-6-(2-fluoro-4-hydroxybenzyl)-4,7-dioxo-2-(prop-2-en-1-yl)hexahydro-2H-pyrazino[2,1-c][1,2,4]triazine-1(6H)-carboxamide] was run?
A: Its value is 3.74 ± 0.75.

Q: And the “Relative tumor volume (RTV), mean±SD” value [1, 7]?
A: Its value is 6.31 ± 1.74.

Q: And the “Relative tumor volume (RTV), mean±SD” value ([1]; Day 12, E7386 50 mg/kg b.d.s. oral alone)?
A: Its value is 7.33 ± 0.89.

Q: And the “Relative tumor volume (RTV), mean±SD” value [1, 8]?
A: Its value is 10.1 ± 1.03.

Q: And the “Relative tumor volume (RTV), mean±SD” value ([2]; Day 4, E7386 50 mg/kg b.d.s. oral alone)?
A: Its value is 1.45 ± 0.23.

Q: What about the “Relative tumor volume (RTV), mean±SD” value ([2]; Day 7, E7386 50 mg/kg b.d.s. oral alone) of the same molecule?
A: The value was 3.05 ± 0.57.

Q: And the “Relative tumor volume (RTV), mean±SD” value [2, 7]?
A: Its value is 3.96 ± 0.53.

Q: What about the “Relative tumor volume (RTV), mean±SD” value ([2]; Day 13, E7386 50 mg/kg b.d.s. oral alone) of the same molecule?
A: The value was 5.60 ± 1.02.

Q: What about the “Relative tumor volume (RTV), mean±SD” value [2, 8] of the same molecule?
A: The value was 6.23 ± 1.39.

Q: What about the “Relative tumor volume (RTV), mean±SD” value ([3]; Day 5, E7386 50 mg/kg q.d. oral alone) of the same molecule?
A: Its value is 1.33 ± 0.24.

Q: And the “Relative tumor volume (RTV), mean±SD” value ([3]; Day 8, E7386 50 mg/kg q.d. oral alone)?
A: The value was 1.70 ± 0.26.

Q: What about the “Relative tumor volume (RTV), mean±SD” value ([3]; Day 12, E7386 50 mg/kg q.d. oral alone) of the same molecule?
A: The value was 2.04 ± 0.29.

Q: What about the “Relative tumor volume (RTV), mean±SD” value ([3]; Day 15, E7386 50 mg/kg q.d. oral alone) of the same molecule?
A: The value was 2.29 ± 0.33.
